Experimental data as given in a melting point compilation (Tetko et al.; mined from patent text by program, amines drawn as free bases though some values may be those of a salt).

Row | melting point [°C] | SMILES
1 | 210 to 211 | CC(=O)Nc1nc(CCc2ccc(CO)cc2)c(Cc2ccc(S(C)(=O)=O)cc2)s1
2 | 135 to 138 | Cc1ccc(CNC(=O)c2ccnc(NC(=O)c3ccccc3)c2)cc1
3 | 188 to 190 | COc1cc(C(=O)O)ccc1OCc1cccc(OCc2ccc3ccccc3n2)c1
4 | 124 | Nc1c(Cl)cc(C(=O)NCCC23CCCN2CCC3)c2c1CCO2
5 | 84 to 89 | FC(F)(F)/C(=C(\c1ccccc1)c1ccc(OCCN2CCOCC2)cc1)c1ccccc1
6 | 106 | CCOC(=O)c1cc(=O)c2cc(C(=O)OCC)c(C(=O)OCC)nc2o1
7 | 256 to 258 | Cc1cc2c(c(C(C)(C)C)c1)OCC(/C=C/C=C/C=C/C(=O)O)=C2
8 | 273 to 274 | Cc1cccc(C)c1CNc1cc(C2=NCCN2)cc2c1nc(C)n2C
9 | 109 | Clc1nc(-c2nnc(Oc3ccccc3)o2)[nH]c1Cl
10 | 150 to 152 | CS(=O)(=O)c1ccc(-n2nc(CCCNC(=O)Nc3cccc(C(F)(F)F)c3)cc2-c2ccccc2)cc1
11 | 202 to 204 | O=C(O)c1ccc2c(c1)Sc1ccccc1CC2O (stereo not given)
12 | 125 to 127 | Cc1cc(OCCCC#Cc2ccc(OC(F)(F)F)cc2)ccc1OCC(=O)O
13 | 46 to 48 | CCSc1ccc(Cl)c(C#N)n1
14 | 141 to 143 | CC(=O)OCCC(C(N)=O)C1(C)OCCc2c1[nH]c1ccccc21 (stereo not given)
15 | 185 to 187 | O=C1CC(O)CC(C=Cc2c3c(nn2-c2ccc(F)cc2)C(Cc2ccccc2)CCC3)O1 (racemic)
16 | 175 to 177 | N#Cc1c(SC(F)(F)F)c(N)n(-c2c(Cl)cc(C(F)(F)F)cc2Cl)c1C#N
17 | 110 | CCc1nnc(C(Cc2ccc(OCCc3nc(-c4ccccc4)oc3C)cc2)c2ccccc2)o1 (stereo not given)
18 | 158 to 162 | Cc1ccccc1N=c1scc(-c2ccc(Cl)c(S(=O)(=O)N(C)C)c2)n1C
19 | 138 to 140 | C1=C(CCc2ccccc2)CCN(Cc2c[nH]c3ccccc23)C1
20 | 163 to 165 | O=C(O)c1ccccc1N1CCN(CC(O)COc2cccc3[nH]ccc23)CC1 (stereo not given)
21 | 50 to 51 | CCCCCCCCC1(CCCCCCCC)c2cc(Cl)ccc2-c2ccc(Cl)cc21
22 | 145 to 146 | COc1cn(-c2ccc(C#CC3CC3)cc2F)nc(-c2ccnn2-c2ccccc2)c1=O
23 | 92 to 94 | FC(F)(F)c1cc(C(F)(F)F)n(-c2ccc(NCc3ccncc3)cc2)n1
24 | 113 to 114 | CN(C)S(=O)(=O)c1cc2c(c(Cl)c1Cl)OC(C(=O)OCOC(=O)C(C)(C)C)C2 (stereo not given)
25 | 166 to 167 | Cn1cc(C(=O)NCc2ccc(Cl)cc2)c(=O)c2cc(CN3CCCSCC3)ccc21

Row | melting point [°C] | SMILES
26 | 116 to 118 | COCCc1nc2ccccn2c(=O)c1-c1ccc(Cl)cc1
27 | 174 to 176 | COC(=O)c1nc2cccc(Cl)c2c(O)c1C(=O)OC
28 | 83 to 85 | COC[C@@H](N)C(=O)N(O)C(=O)OC(C)(C)C
29 | > 250 | CCCOc1cc2c(=O)cc(C(=O)O)[nH]c2ccc1=O
30 | 129 to 130 | COc1ccccc1C(=O)c1cc2ccccc2[nH]1
31 | 240 to 241 | NS(=O)(=O)c1cc(C(=O)O)cc(NCCCC(=O)O)c1Oc1ccccc1
32 | 180 to 183 | CC(C)C1Sc2ccccc2NC(=O)C1N (stereo not given)
33 | 165 to 167 | CNc1cccc(C(=O)O)c1C
34 | 120 to 121 | COc1cc(CO)ccc1C12CC3CC(CC(C3)C1)C2
35 | 171 to 173 | CC(C)CCCC(C)C1C(O)CC2C3=CC=C4C(C)(C)C(O)CCC4(C)C3CCC21C (stereo not given)
36 | 116 | CC1C(=O)N(c2cccc(F)c2)C(=S)N1c1ccc(Oc2ccccc2)cc1 (stereo not given)
37 | 146 to 147 | CCCCN(Cc1ccc(-c2ccccc2-c2nc(=O)o[nH]2)cc1)c1ncccc1C(=O)OCC
38 | 213 to 215 | O=c1cc(CCO)c2ccccc2[nH]1
39 | 73 to 75 | CC(N1CCN(c2ncnn2Cc2ccc(C(C)(C)C)cc2)CC1)C(O)(Cn1cncn1)c1ccc(F)cc1F (stereo not given)
40 | 105 to 109 | Nc1c(Cl)ccc2c1NCCC2=O
41 | 81 to 83 | CCN(CCO)Cc1cc(Nc2nc(Nc3ccc4c(c3OC)CCC(N3CCOCC3)CC4)ncc2Cl)ccc1F (stereo not given)
42 | 158 to 159 | CC(C)(C)c1nn(-c2ccc(N)cc2Cl)c(=O)o1
43 | 191 to 192 | Cc1oc(-c2ccco2)nc1COc1ccc(COc2nn(Cc3ccccc3)cc2C(=O)O)cc1Cl
44 | 234 to 238 | CCC12CCC3=C(CCc4cc(O)ccc43)C1CCC2O (stereo not given)
45 | 54 to 57 | Cc1cc(C)c2c(n1)CCCC2=O
46 | 281 to 283 | O=c1[nH]c2ncc(-c3ccc(-c4n[nH]c(CN5CCOCC5)n4)cc3)nc2n1CC1CCOCC1
47 | 174 | COc1ccc(-c2cccc(OC3SCC(O)C(O)C3O)c2)cn1 (stereo not given)
48 | 175 to 176 | O=C(OCCc1ccccc1)c1ccc2cc(O)c(O)cc2c1
49 | 149 to 151 | CC(=O)c1sc(N2CCN(Cc3cccc(C(F)(F)F)c3)C2=O)nc1C
50 | 105 | O=[N+]([O-])c1cnn(-c2c(Cl)cc(C(F)(F)F)cc2Cl)n1

Row | melting point [°C] | SMILES
51 | 130 to 132 | OC(c1nnn[nH]1)c1ccccc1Cl (racemic)
52 | 174 to 176 | O=C(O)Cc1c(C(=O)O)c2cc(Oc3ccc(Cl)c(F)c3)ccc2n1-c1ccccc1
53 | 138 | CC(C)C1CC(=O)C(C(=O)Nc2ccc(Cl)c(Cl)c2)C(=O)C1 (stereo not given)
54 | 85 | Cc1c(C(O)c2ccccc2)nc2n1CCc1ccccc1C2OC1CCN(C)CC1 (stereo not given)
55 | 49.9 to 53.4 | CCOC(=O)C=Cc1ccc(NCCOC)cc1
56 | 120 to 124 | COc1ccccc1N1CCN(CCCNC(=O)c2cccc3c(=O)c(C)c(C4(C)CCCCC4)oc23)CC1
57 | 180 to 183 | COC(=O)c1cc(N)c(F)c(Cl)n1
58 | 167 to 168 | O=C(Nc1ccc(C(F)(F)F)cc1)Nc1nc(OCC(F)(F)F)cc(OCC(F)(F)F)n1
59 | 208 to 210 | COc1cc(-c2ccccc2C(F)(F)F)c(Cl)cc1C(=O)N1Cc2cccn2Cc2ccccc21
60 | 156 to 157 | Cc1cc(C)c(C(O)c2ccc(-n3ccnc3)c(Cl)c2)c(C)c1 (stereo not given)
61 | 221 to 222 | CSc1nc(P(=O)(c2ccccc2)c2ccccc2)cc(P(=O)(c2ccccc2)c2ccccc2)n1
62 | 186 to 188 | CCOCc1nc2c(N)nc3cc(Br)ccc3c2n1CC1CCOCC1
63 | 225 | Cc1nc2cccc(C)n2c(=O)c1CCN1CCC(c2c[nH]c3ccccc23)CC1
64 | 167 to 169 | CCc1noc2cc(-c3ccccc3)n(C)c(=O)c12
65 | 79 | C=CC(=O)N[C@H](C)C(=O)OC1(C)CCC(C(C)C)CC1 (stereo not given in full)
66 | 82 | CN1CCC(OC(c2cccc(C#CCCCN)c2)c2nc3ccccc3[nH]2)CC1 (stereo not given)
67 | 108 to 109 | Cc1cc(Cl)cc2c(-c3ccccc3)onc12
68 | 97 to 98 | CSc1ccc(NC(=O)C2(C)CC2)cc1C(F)(F)F
69 | 89 to 91 | COc1ccc(CNC(=O)[C@@H](NC(=O)[C@H](NCc2ccc(N(C)C)cc2)[C@H](O)[C@H](Cc2ccccc2)NC(=O)OC(C)(C)C)C(C)C)c(O)c1
70 | 124 to 126 | Cc1sc(C)c(CC#N)c1CC#N
71 | 73 to 74 | CCOC(=O)c1c(C)nc(N2CCCCC2)c2nccnc12
72 | 119 to 120 | CN(C)CCOC(=O)c1cccc(Nc2cc(C(C)(C)C)c(O)c(C(C)(C)C)c2)c1
73 | 130 | O=C(NO)[C@H](CNS(=O)(=O)c1ccc(OCc2cc(Cl)cc(Cl)c2)cc1)N1CCCCC1
74 | > 250 | Nc1nc(N)nc(-c2ccc(-c3ccccc3[N+](=O)[O-])cc2)n1
75 | 210 to 212 | CSc1cnc2ccsc2c1O

Row | melting point [°C] | SMILES
76 | 88 to 89 | CCCCCC(=O)n1c(=O)n(CCCC)c(=O)n1C(=O)CCCCC
77 | 38 to 39 | CCOC(=O)CC(=O)c1cc(F)c(F)c(C)c1F
78 | 144 to 145 | O=C(C(=O)c1cccc(C#Cc2ccccc2)c1)c1cccc(C#Cc2ccccc2)c1
79 | > 300 | CCn1cnc2c(=O)[nH]c(N)nc21
80 | 140 to 142 | O=S1CCc2n[nH]c(CCCN3CCN(c4ccc(F)cc4)CC3)c2C1 (stereo not given)
81 | 63 to 64 | CC(=C1SCCCS1)c1cccc(O)c1
82 | 190 | COc1ccccc1C1(O)C(O)CC(C)(C)C2CN(Cc3ccccc3)CC21 (stereo not given)
83 | 159 to 160 | C#CCn1c(-c2ccccc2)nc(O)c(CC)c1=O
84 | 163 to 164 | CC(Oc1ccc(S(C)(=O)=O)cc1)c1ccnc2ncnn12 (stereo not given)
85 | 166 to 167 | CC1CC(Nc2nnc(-c3cccc(Oc4ccc(C(C)(C)C)cc4)c3)s2)CC(C)(C)C1 (stereo not given)
86 | 153 to 154 | O=Cc1[nH]ccc1-c1ccc(I)cc1
87 | 155 | O=C(c1cc2c(cc1Cl)OCO2)N1CCOCC1
88 | 68 to 69 | CCCCCCCNc1cccc2c1CN(c1cc(C)cc(C)c1)C2=O
89 | 193 | Cn1c(S)nnc1C(O)(c1ccc(Cl)cc1)c1cc2c3c(c1)c(-c1cccc(Cl)c1)cc(=O)n3CO2 (stereo not given)
90 | 141 to 142 | COC(=O)CN(CCN(CCN(CC(=O)OC)S(=O)(=O)c1ccc(C)cc1)S(=O)(=O)c1ccc(C)cc1)S(=O)(=O)c1ccc(C)cc1
91 | 189 to 192 | Cc1ccc2cc(NC(=O)c3cccc(OCc4ccc(N)nc4)c3)ccc2n1
92 | 119 to 120 | Cc1cc2c(s1)CCCNC2=O
93 | 173 to 176 | CC(C)(C)CN1C(=O)[C@@H](CC=O)O[C@H](c2ccccc2Cl)c2cc(Cl)ccc21 (relative stereo)
94 | 257 to 262 | CCCCNS(=O)(=O)c1ccc2[nH]c(=O)c(=O)[nH]c2c1
95 | 215 to 217 | CCn1cc(C(=O)O)c(=O)cc1-c1ccc(OC)cc1
96 | 169 to 170 | COC(=O)c1ccc(NC(=O)N(C)C)cc1
97 | 321 | COc1ccc(C(=O)Nc2cc(C(F)(F)F)c(Br)cc2S(N)(=O)=O)cc1

Row | SMILES | melting point [°C]
98 | Cc1ccc(P(C)(C)=O)cc1 | 90 to 92
99 | CCOC(=O)c1ncn2c1[C@@H]1CCCN1C(=O)c1sccc1-2 | 212 to 213
100 | O=C(CNC(=O)c1ccncc1)NC1CCN(CCc2c[nH]c3ccccc23)CC1 | 211 to 215
